Results taken from patent publication US20100137446A1, “NAPHTHALENE COMPOUNDS, A PROCESS FOR THEIR PREPARATION AND PHARMACEUTICAL COMPOSITIONS CONTAINING THEM” (priority 2007, published 2010).

Columns and labels:
MT1 receptor = MT1 receptor (Homo sapiens, UniProt P48039); assay: Melatonin MT1 receptor binding study; details: 2-[125I]-iodomelatonin radioligand
Procedure: (§1) The MT1 or MT2 receptor binding experiments are carried out using 2-[^125I]-iodomelatonin as reference radioligand. The radioactivity retained is determined using a liquid scintillation counter.
(§2) Competitive binding experiments are then carried out in triplicate using the various test compounds. A range of different concentrations is tested for each compound. The results enable the binding affinities of the compounds tested (Ki) to be determined.

MT2 receptor = target: T1, MT2 receptor (Homo sapiens, UniProt P49286); assay: Melatonin MT2 receptor binding study; details: 2-[125I]-iodomelatonin radioligand
T1 sequence (P49286 1-362): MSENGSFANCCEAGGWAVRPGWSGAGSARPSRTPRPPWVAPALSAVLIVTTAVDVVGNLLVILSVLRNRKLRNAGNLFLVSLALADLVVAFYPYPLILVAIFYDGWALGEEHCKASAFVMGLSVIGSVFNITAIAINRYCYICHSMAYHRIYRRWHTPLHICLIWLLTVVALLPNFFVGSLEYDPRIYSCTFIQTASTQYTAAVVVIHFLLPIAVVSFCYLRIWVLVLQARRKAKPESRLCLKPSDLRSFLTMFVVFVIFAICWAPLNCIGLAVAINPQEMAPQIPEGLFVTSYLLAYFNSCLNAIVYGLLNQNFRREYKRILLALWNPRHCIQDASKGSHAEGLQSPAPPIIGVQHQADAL
Procedure: as §1, §2

human 5-HT2C receptor = target: T2, human 5-HT2C receptor (Homo sapiens, UniProt P28335); assay: Serotoninergic 5-HT2C receptor binding study; details: CHO cell membranes, [3H]-mesulergine (1 nM)
T2 construct: expressed in transfected cells
T2 sequence (P28335 33-458): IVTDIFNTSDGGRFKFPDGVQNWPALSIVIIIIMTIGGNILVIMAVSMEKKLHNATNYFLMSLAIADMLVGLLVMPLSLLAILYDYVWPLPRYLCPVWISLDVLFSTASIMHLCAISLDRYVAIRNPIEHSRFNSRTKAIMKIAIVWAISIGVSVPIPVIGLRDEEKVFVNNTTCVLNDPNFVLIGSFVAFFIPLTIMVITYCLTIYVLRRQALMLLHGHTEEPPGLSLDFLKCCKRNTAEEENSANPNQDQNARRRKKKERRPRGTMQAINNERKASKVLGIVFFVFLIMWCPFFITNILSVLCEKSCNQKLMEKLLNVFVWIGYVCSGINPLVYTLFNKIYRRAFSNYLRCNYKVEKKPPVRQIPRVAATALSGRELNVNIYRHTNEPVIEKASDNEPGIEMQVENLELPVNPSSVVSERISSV
Procedure: The affinity of the compounds for the human 5-HT2C receptor is evaluated on membrane preparations from CHO cells stably expressing that receptor.
Incubation is carried out in 50 mM TRIS buffer, pH 7.4, containing 10 mM MgCl2 and
0.1% BSA, in the presence of [^3H]-mesulergine (1 nM) and 25 fmol/ml of receptor. Non-specific binding is determined in the presence of 10 μM mianserin.
The reaction is stopped by the addition of 50 mM TRIS buffer, pH 7.4, followed by a filtration step and 3 successive rinses: the radioactivity bound to the membranes remaining on the filters (GF/B pretreated with 0.1% PEI) is determined by liquid scintillation counting.

MT1 receptor, sequence (P48039 whole entry): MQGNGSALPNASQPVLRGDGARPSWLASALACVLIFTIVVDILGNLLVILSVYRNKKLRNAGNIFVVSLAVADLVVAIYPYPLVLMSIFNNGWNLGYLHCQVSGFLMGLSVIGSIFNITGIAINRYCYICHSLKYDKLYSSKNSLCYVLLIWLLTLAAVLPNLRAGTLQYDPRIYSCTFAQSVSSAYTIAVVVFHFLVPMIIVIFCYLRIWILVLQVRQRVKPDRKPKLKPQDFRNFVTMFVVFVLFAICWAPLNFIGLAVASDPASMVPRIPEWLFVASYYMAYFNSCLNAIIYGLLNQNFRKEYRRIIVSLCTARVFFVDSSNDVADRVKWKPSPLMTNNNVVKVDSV

Ki (MT1 receptor): 0.1 nM
Ki (MT2 receptor): 0.2 nM
Ki (human 5-HT2C receptor): 6000 nM
SMILES: COc1ccc2cccc(C(CF)CNC(C)=O)c2c1 (stereo not drawn) [Example 5, N-[3-Fluoro-2-(7-methoxy-1-naphthyl)propyl]acetamide]
